Drawing on US8211911B2, “Compounds as kinase inhibitors” (priority 2008, dated 2012), this text covers IC50 for two compounds.

Test [1] concerns colon LOVO cell line. The test is described as follows: MTT assay against colon LOVO cell line. The format is cell-based, human. The conditions noted are these: Homo sapiens. For orientation: Tetrazolium assays rely on reduction of a dye to a coloured formazan, in cell work by metabolically active cells.
Test [2] deals with NSCLC A549 cell line. The test is described as follows: MTT assay against human tumor NSCLC A549 cell line. Format: cell-based. The conditions noted are these: Homo sapiens.

On to `COc1cc2c(Oc3ccc4[nH]c(C)cc4c3F)ccnc2cc1OCCN1CC(O)C2(CC2)C1` (stereo not shown) [Example 3, 5-(2-(4-(4-fluoro-2-methyl-1H-indol-5-yloxy)-6-methoxyquinolin-7-yloxy)ethyl)-5-azaspiro[2.4]-heptan-7-ol], for which the IC50 in test [1] was 400 nM; in test [2] it was 100 nM.
For the compound `C=C1CN(CCCOc2cc3nccc(Oc4ccc5c(C(=O)NC)cccc5c4)c3cc2OC)CC12CC2` [Example 30, 6-(6-Methoxy-7-(3-(7-methylene-5-azaspiro[2.4]heptan-5-yl)propoxy)quinolin-4-yloxy)-N-methyl-1-naphthamide], the IC50 was found to be 1000 nM in test [1] and 900 nM in test [2].

Broadly, the IC50 is the concentration needed to halve the response being measured.
